ChEMBL document CHEMBL1201862, “PubChem BioAssay data set” (2004)
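Following 48 hours of exposure in 96-well plates, responses at five concentrations were used to interpolate endpoints linearly. The concentration for 50% growth inhibition is given as GI50.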 Calls of active or inactive are those of the source. No stated cut-off is given here; in the data, active = GI50 up to about 1.1 µM and inactive = higher.

Key:
Assay in all cases: NCI-60 cell line screen, 48 h
[1] = system: 786-0
[2] = system: A498
[3] = system: A549
[4] = system: ACHN
[5] = system: CAKI-1
[6] = system: CCRF-CEM
[7] = system: COLO 205
[8] = system: DLD-1
[9] = system: DMS-114
[10] = system: DMS-273
[11] = system: EKVX
[12] = system: HCC 2998
[13] = system: HCT-116
[14] = system: HCT-15
[15] = system: HL-60
[16] = system: HOP-18
[17] = system: HOP-62
[18] = system: HOP-92
[19] = system: HT-29
[20] = system: IGROV-1
[21] = system: K562
[22] = system: KM-20L2
[23] = system: KM12
[24] = system: LOX IMVI
[25] = system: LXFL 529
[26] = system: M14
[27] = system: M19-MEL
[28] = system: MOLT-4
[29] = system: Malme-3M
[30] = system: NCI-H226
[31] = system: NCI-H23
[32] = system: NCI-H460
[33] = system: NCI-H522
[34] = system: OVCAR-3
[35] = system: OVCAR-4
[36] = system: OVCAR-5
[37] = system: OVCAR-8
[38] = system: RPMI-8226
[39] = system: RXF 393
[40] = system: SF-268
[41] = system: SF-295
[42] = system: SF-539
[43] = system: SK-MEL-28
[44] = system: SK-MEL-2
[45] = system: SK-MEL-5
[46] = system: SK-OV-3
[47] = system: SN12C
[48] = system: SNB-19
[49] = system: SNB-75
[50] = system: SNB-78
[51] = system: SR
[52] = system: SW-620
[53] = system: TK-10
[54] = system: U-251
[55] = system: UACC-257
[56] = system: UACC-62
[57] = system: UO-31
[58] = system: BT-549
[59] = system: DU-145
[60] = system: Hs-578T
[61] = system: MCF7
[62] = system: MDA-MB-231
[63] = system: MDA-MB-435
[64] = system: MDA-N
[65] = system: NCI/ADR-RES
[66] = system: PC-3
[67] = system: XF498

Measured: GI50

CCOC(=O)c1c(NNc2ccccc2)nc2ccccc2c1-c1ccccc1
33000 nM: [14]
inactive: [1] 31700 nM | [2] > 100000 nM | [3] 34500 nM | [4] 39500 nM | [5] 37100 nM | [6] 10900 nM | [7] 30000 nM | [8] 25900 nM | [9] 17100 nM | [10] 43200 nM | [11] 50200 nM | [12] 55000 nM | [13] 21800 nM | [15] 15800 nM | [16] 28600 nM | [17] 23800 nM | [18] 27900 nM | [19] 32300 nM | [20] 42400 nM | [21] 22500 nM | [22] 35500 nM | [23] 31400 nM | [24] 20200 nM | [25] 19000 nM | [26] 27300 nM | [27] 24300 nM | [28] 12800 nM | [29] 29100 nM | [30] 28200 nM | [31] 19500 nM | [32] 28400 nM | [33] 30100 nM | [34] 21100 nM | [35] 37500 nM | [36] 56100 nM | [37] 20400 nM | [38] 11900 nM | [39] 42000 nM | [40] 31100 nM | [41] 42600 nM | [42] 25600 nM | [43] 34000 nM | [44] 17200 nM | [45] 20400 nM | [46] 65500 nM | [47] 30600 nM | [48] 41800 nM | [49] 36800 nM | [50] 27000 nM | [51] 21400 nM | [52] 50400 nM | [53] 80400 nM | [54] 34400 nM | [55] 29700 nM | [56] 16600 nM | [57] 25800 nM

CN(C)c1ccc(/N=C2/C=CC(=C(C#N)C#N)c3ccccc32)cc1
inactive: [16] 1140 nM | [53] 1820 nM | [55] 1490 nM
active: [1] 385 nM | [2] 392 nM | [3] 436 nM | [4] 485 nM | [58] 828 nM | [5] 550 nM | [6] 94 nM | [7] 95.7 nM | [8] 294 nM | [9] 234 nM | [10] 303 nM | [59] 259 nM | [11] 955 nM | [12] 244 nM | [13] 117 nM | [15] 54.1 nM | [17] 468 nM | [18] 70 nM | [19] 177 nM | [60] 361 nM | [20] 222 nM | [21] 72.3 nM | [22] 209 nM | [23] 381 nM | [24] 282 nM | [26] 145 nM | [27] 904 nM | [61] 178 nM | [62] 307 nM | [63] 39.1 nM | [64] 36.5 nM | [28] 196 nM | [29] 625 nM | [30] 236 nM | [31] 259 nM | [32] 332 nM | [33] 55.5 nM | [65] 97.5 nM | [34] 118 nM | [35] 906 nM | [36] 326 nM | [37] 213 nM | [66] 183 nM | [38] 122 nM | [39] 460 nM | [40] 380 nM | [41] 291 nM | [42] 208 nM | [43] 520 nM | [44] 337 nM | [45] 133 nM | [46] 332 nM | [47] 332 nM | [48] 536 nM | [49] 363 nM | [50] 479 nM | [51] 34.5 nM | [52] 114 nM | [54] 333 nM | [56] 386 nM | [57] 893 nM | [67] 261 nM
195 nM: [14]

O=C1N[C@@H]2C(=C[C@H](O)[C@@H](O)[C@H]2O)c2cc3c(c(O)c21)OCO3 [NARCICLASINE]
45 nM: [14]
active: [2] 45 nM | [3] 45 nM | [5] 45 nM | [6] 45 nM | [8] 45 nM | [10] 45 nM | [11] 45 nM | [12] 45 nM | [13] 45 nM | [15] 64.6 nM | [16] 53.5 nM | [17] 45 nM | [18] 45 nM | [19] 45 nM | [20] 45 nM | [21] 45 nM | [22] 45 nM | [23] 45 nM | [24] 45 nM | [28] 45 nM | [29] 45 nM | [30] 45 nM | [31] 45 nM | [32] 45 nM | [65] 45 nM | [34] 45 nM | [35] 142 nM | [36] 63.2 nM | [37] 45 nM | [38] 45 nM | [40] 45 nM | [41] 63.4 nM | [42] 45 nM | [43] 45 nM | [44] 45 nM | [45] 45 nM | [46] 45 nM | [47] 45 nM | [48] 45 nM | [49] 45 nM | [50] 45 nM | [52] 45 nM | [54] 45 nM | [55] 45 nM | [56] 45 nM | [57] 45 nM | [67] 45 nM
